Several values for one entry are separate records, joined by “and”; a condition that tells them apart may be missing. Identical values can stand only once. After the bases stand the sugars from the 5' end (letter, count) and the backbone: PS all phosphorothioate, else s phosphorothioate and o phosphodiester by linkage. Methylation of C is not given here. e = 2'-O-(2-methoxyethyl) (MOE); k = constrained ethyl (cEt); d = 2'-deoxy (DNA)
Target: IRF4
Details: ASO, H929, 0.04 µM

With TAGTATGAGAAACGGC (sugars k3 d10 k3, PS) the target mRNA inhibition was 33% and 47%.

Same assay, conditions: ASO, KMS11, 0.2 µM

TAGTATGAGAAACGGC (sugars k3 d10 k3, PS) was tested, and the target mRNA inhibition was 65% and 85%.

Same assay, conditions: ASO, MM.1R, 0.0625 µM

In the case of TACTGTTACCGATGCT (sugars k3 d10 k3, PS), the target mRNA inhibition is reported as -6%.

Same assay, conditions: ASO, MM.1R, 0.25 µM

For TACTGTTACCGATGCT (sugars k3 d10 k3, PS), the target mRNA inhibition was -4%.

Same assay, conditions: ASO, MM.1R, 1 µM

Going from TACCGATGCTTCAAGA (sugars k3 d10 k3, PS) to TACCTCAGTTTGTGAA (sugars k3 d10 k3, PS), the target mRNA inhibition rises from -3% to 11%.

Going from “TACTGCTTGAGGTTTT (sugars kddddddddddkekek, PS)” to “TACTGTTACCGATGCT (sugars kdddddddddkekeke, PS)”, the target mRNA inhibition falls from 24% to 18%.

Going from TAGGACTAAGGACAGC (sugars k3 d10 k3, PS) to TAGGCACATCAATGTT (sugars k3 d10 k3, PS), the target mRNA inhibition rises from -5% to 12%.

Compared with “TAGTATGAGAAACGGC (sugars e1 k2 d9 k2 e2, PS)”, “TAGTATGAGAAACGGC (sugars k2 d9 e3 k2, PS)” is lower in target mRNA inhibition: 38% for the first, 37% for the second.

First: TAGTATGAGAAACGGC (sugars kdddddddddkekeke, PS)
Second: TAGTATGAGAAACGGC (sugars kkdddddddddkekek, PS)
The target mRNA inhibition of the first is higher: 32% for the first, 27% for the second.

Going from TATAACGGTGTTTCAG (sugars k3 d10 k3, PS) to TATCATCCGAAAAGAC (sugars k3 d10 k3, PS), the target mRNA inhibition falls from 36% to 3%.

Compared with TATCCTGTAGTATGAG (sugars k3 d10 k3, PS), TATTTATGAGCTTCCA (sugars k3 d10 k3, PS) is lower in target mRNA inhibition: 42% for the first, 21% for the second.

In the case of TACTGTTACCGATGCT (sugars k3 d10 k3, PS), the target mRNA inhibition is reported as 37% and 18%.
With “TACTGTTACCGATGCT (sugars kkdddddddddkekek, PS)” the target mRNA inhibition was 9% and 27%.

Same assay, conditions: ASO, MM.1R, 4 µM

TACTGTTACCGATGCT (sugars k3 d10 k3, PS) was tested, and the target mRNA inhibition was 38%.

Same assay, conditions: ASO, SK-MEL-28, 4 µM

Going from TACGACAACTTTCCTG (sugars k3 d10 k3, PS) to TACTAACTGGCTTCCA (sugars k3 d10 k3, PS), the target mRNA inhibition falls from 41% to 28%.

First: TACTAGGTGCTTGTTG (sugars k3 d10 k3, PS)
Second: TAGAAAGAGCTGGTAG (sugars k3 d10 k3, PS)
The target mRNA inhibition of the first is higher: 49% for the first, 9% for the second.

Compared with TAGAAGCCCACAAGAA (sugars k3 d10 k3, PS), TAGCAAATGGCAAGTT (sugars k3 d10 k3, PS) is higher in target mRNA inhibition: 1% for the first, 17% for the second.

Compared with TAGCAGAGGTTCTACG (sugars k3 d10 k3, PS), TAGCATGGATCCTGAG (sugars k3 d10 k3, PS) is lower in target mRNA inhibition: 24% for the first, 0% for the second.

Going from TAGGTCATACCCTGGA (sugars k3 d10 k3, PS) to TAGTAGGTAAGATCTC (sugars k3 d10 k3, PS), the target mRNA inhibition falls from 72% to 23%.

First: TAGTATGAGAAACGGC (sugars k3 d10 k3, PS)
Second: TAGTCGACAGCTAAAG (sugars k3 d10 k3, PS)
The target mRNA inhibition of the first is higher: 78% for the first, 46% for the second.

Compared with TAGTGCTGTGCAGACC (sugars k3 d10 k3, PS), TAGTGTCGCCATGGCT (sugars k3 d10 k3, PS) is higher in target mRNA inhibition: 32% for the first, 69% for the second.

Compared with TATACCAACGACAGCA (sugars k3 d10 k3, PS), TATAGAATTAGGTGCT (sugars k3 d10 k3, PS) is lower in target mRNA inhibition: 49% for the first, 40% for the second.

Going from TATAGCACTCTCCTAT (sugars k3 d10 k3, PS) to TATATAGAATTAGGTG (sugars k3 d10 k3, PS), the target mRNA inhibition falls from 2% to -16%.

Going from TATCAAAGATCTCCAC (sugars k3 d10 k3, PS) to TATCAGATACACACCC (sugars k3 d10 k3, PS), the target mRNA inhibition falls from 25% to 19%.

First: TATCAGGATCTCAAGG (sugars k3 d10 k3, PS)
Second: TATGACCCAGTGCTCT (sugars k3 d10 k3, PS)
The target mRNA inhibition of the first is lower: 6% for the first, 40% for the second.

First: TATGAGAAACGGCCTG (sugars k3 d10 k3, PS)
Second: TATTTATGCCCTCGCT (sugars k3 d10 k3, PS)
The target mRNA inhibition of the first is higher: 45% for the first, 26% for the second.

First: TCAAAGCGCACCGCAG (sugars k3 d10 k3, PS)
Second: TCAAATCTTCAACAGC (sugars k3 d10 k3, PS)
The target mRNA inhibition of the first is lower: 43% for the first, 76% for the second.

In the case of TCACACTGCCGTGATC (sugars k3 d10 k3, PS), the target mRNA inhibition is reported as 22%.
